Test results from PMC6447882, “Pharmacokinetics and Biodistribution of Pegylated Methotrexate after IV Administration to Mice” (Iranian Journal of Pharmaceutical Research : IJPR, 2018).
Converted amounts (≈) assume the structure as drawn. “And” between values parts separate entries of the source, which are not always exact repeats. Identical values can stand only once. “Also recorded” adds a separate entry of the source. Like-named read-outs stand apart in the source and are kept apart here.

Assays:
[1] = design: method as in PMID 18346806, PMID 12506184; settings: drug linked to PEG40000 vs free drug; cited from earlier work
[2] = design: method as in PMID 18346806, PMID 12506184; settings: conjugation to PEG5000; cited from earlier work
in vivo = settings: mice; for half-life: iv
Method: A portion of 500 μL acetonitrile was added to a mixture of 225 μL plasma and 25 μL MTX or MTX-PEG5000 solution (100 µg/mL) and vortexed. Precipitated proteins were separated by centrifuging the mixture at 12000 rpm for 5 min. The supernatant was evaporated by a Multi-Evaporator (VLM EC 1, Italy) at 50 °C using nitrogen gas. The residue was dissolved in 150 μL mobile phase and injected to HPLC. The standards were prepared in triplicate at eight concentrations ranging from 0.25 to 100 µg/mL for MTX and from 1 to 1000 µg/mL for MTX-PEG5000.
A Knauer HPLC system consisted of a wellchrom pump k-1001, equipped with k-2701, DAD k-2700 detector was used. Chromatography was performed on a PerfectSilTarget® 100 HPLC Column (C8, 150 × 4.6 mm, 5 µm). For analysis of MTX, mobile phase consisted of phosphate-citrate buffer (pH 5): acetonitrile (88:12, v/v) and was delivered isocratically at a flow rate of 1 mL/min.
The column eluent was monitored using UV detector at the wavelength of 302 nm. For analysis of MTX-PEG5000, the mobile phase consisted of phosphate-citrate buffer (pH 5): acetonitrile (55:45, v/v) and was delivered isocratically at a flow rate of 0.5 mL/min. The column eluent was monitored using UV detector at the wavelength of 342 nm.
(§1) IV bolous injections of MTX and MTX-PEG5000 (70 mg/kg) were administered to mice through marginal veins by insulin syringe (gauge 27). At least three mice were sacrificed at each time point. The animals (n = 200) at dosing were in the range of 2-4 weeks of age and their mean weight was 20 ± 5 g. The blood samples were collected at 5, 10, 15, 30, 45, 60, 90, and 120 min intervals for MTX and for at 5, 10, 15, 30, 45, 60, 90, 120, 180, 240, 300, and 360 min intervals for MTX-PEG5000. At each time point, the blood samples were collected from at least three mice and after centrifuging (10000 rpm, for 5 min), the plasma samples were separated and immediately frozen at -20 °C. Then, the mice were cervically dislocated and their organs including heart, liver, spleen, kidney, lung, brain, and small intestine were removed and after washing with normal saline, were dried by facial tissue and exactly weighed. Whole removed organs and 0.25 to 0.5 g of liver and small intestine were minced and homogenized in a certain volume of normal saline using homogenizer IKA basic T25 (Germany). The organs were collected from MTX injected animals (10, 60 and 120 min for all organs and 5, 10, 30, 60 and 120 for liver tissue) and at 2, 6, 12, 24, and 48 h for mice administered by MTX-PEG5000.
The logarithm of plasma concentrations of MTX and MTX-PEG5000 were plotted vs. time. […] The pharmacokinetic parameters were obtained by fitting data to two-compartmental model equation (C = Ae^-αt + Be^-βt) and noncompartmental model using Excel 2010 (33).

[3] = relatively alkaline pH of plasma; no reference given; cited from earlier work
[4] = design: method as in PMID 18346806; settings: cited from earlier work
[5] = Biodistribution (tissue distribution) after IV injection to mice; assay type: in vivo; settings: iv 70 mg/kg
Method: For preparation of MTX tissue samples, one volume of tissue homogenate in normal saline was mixed with two volume acetonitrile and centrifuged in 12000 rpm for 5 min. The supernatant was removed and evaporated to dryness under nitrogen gas. The residue was reconstituted in 250 μL mobile phase and was injected to HPLC. For preparation of MTX-PEG5000 tissue samples, one volume of tissue homogenate in normal saline was mixed with two volumes of dichloromethane and shaked for 15 min. After centrifugation (5000 rpm), the lower organic phase was aspirated and dehydrated by Na2SO4 and after dissolving in 200 μL mobile phase, was injected to HPLC. The standard solutions were prepared in triplicate at concentration levels ranging from of 1 to 50 µg/mL for MTX and 2.5 to 500 µg/mL for MTX-PEG5000.
The same HPLC instrument was utilized for analysis of MTX and MTX-PEG tissue samples. The precision and accuracy of the method were examined by adding known amounts of MTX (0. 25, 2.5 and 10 µg/mL) and MTX-PEG5000 (5, 50 and 500 µg/mL) to pool tissue (quality control) samples. The other steps were performed as plasma samples.
as §1, with “Whole removed organs and 0.25 to 0.5 g of liver and small intestine were minced and homogenized in a certain volume of normal saline using homogenizer IKA basic T25 (Germany). The organs were collected from MTX injected animals (10, 60 and 120 min for all organs and 5, 10, 30, 60 and 120 for liver tissue) and at 2, 6, 12, 24, and 48 h for mice administered by MTX-PEG5000.” left out

plasma proteins = settings: cited from earlier work
[6] = design: method as in earlier work; settings: cited from earlier work
[7] = iv 70 mg/kg, two-compartmental model, n = 3
[8] = iv 70 mg/kg, two-compartmental model, n = 3, 70 mg/kg

In the case of `CC[C@@]1(O)C(=O)OCc2c1cc1n(c2=O)Cc2cc3ccccc3nc2-1` [Campthotecin], the “T1/2 β” value [1] is listed as 1320 min.
In the case of `Nc1ccn([C@@H]2O[C@H](CO)[C@@H](O)C2(F)F)c(=O)n1` [Gemcitabine], the AUC [2] is given as 118.55 µg·min/mL, the “T1/2 α” value [2] is given as 59.4 min and the “T1/2 β” value [2] is given as 673.8 min. The clearance [2] was 0.654 mL/min.
For `CN(Cc1cnc2nc(N)nc(N)c2n1)c1ccc(C(=O)N[C@@H](CCC(=O)O)C(=O)O)cc1` [MTX, Methotrexate], the AUMC (in vivo; iv 70 mg/kg, n = 3) was 24.63 ± 2.84 mg.mL-.min2, the Vc (in vivo; iv 70 mg/kg, n = 3) was 94.025 ± 6.814 mL and the AUC (in vivo; iv 70 mg/kg, n = 3, 70 mg/kg) was 2.64 mg·min/mL and 2.642 mg·min/mL and 2.642 ± 0.190 mg·min/mL. For the same compound, the K10 (in vivo; [7]) was 0.236 ± 0.043 min⁻¹, the K12 (in vivo; [7]) was 0.050 ± 0.020 min⁻¹ and the K21 (in vivo; [7]) was 0.036 ± 0.002 min⁻¹. For the same compound, the “T1/2a (distribution half-life, T1/2 α)” value (in vivo; [8]) was 2.445 ± 0.549 min, the “T1/2b (elimination half-life, T1/2 β)” value (in vivo; [8]) was 24.328 ± 0.657 min and the half-life (in vivo; mouse, plasma, 70 mg/kg, two-compartmental model, n = 3, read-out: T1/2a (distribution half-life, T1/2 α)) was 2.45 min. The half-life (in vivo; mouse, plasma, 70 mg/kg, two-compartmental model, n = 3, read-out: T1/2b (elimination half-life, T1/2 β)) was 24.3 min, the clearance (in vivo; mouse, plasma, iv 70 mg/kg, n = 3, read-out: CLs (systemic clearance)) was 22.4 ± 5.46 mL/min and the MRT (in vivo; mouse, plasma, iv 70 mg/kg, noncompartmental model, n = 3, read-out: MRT (mean residence time) (converted)) was 9.3 min. The logP [3] was -1.4, the “Solubility in aqueous solution” value ([4]; pH4) was 0.08 mg/mL (≈ 0.176 mM) and the “Solubility in aqueous solution” value ([4]; pH8) was 58.17 mg/mL (≈ 128 mM). The “Time after injection up to which measurable in tissues” value [5] was ≤ 2 h, the “Accumulation in organs (liver, intestine)” value ([5]; 70 mg/kg) was “accumulated in liver immediately after its distribution phase (10 min) and then redistributed to small intestine (60 min); also recorded: high and fast accumulation in liver” and the “Presence in the brain” value ([5]; brain) was “no detectable amount of drug was found in the brain”. For the same compound, the Protein binding (plasma proteins) was 30-50%, the “Portion of the drug bound to plasma proteins” value (plasma proteins; no reference given) was 50% and the Plasma half-life [6] was 90 to 210 min.
